{"source": "ChEMBL document CHEMBL3763135", "about": "“Synthesis and evaluation of thiophene-based guanylhydrazones (iminoguanidines) efficient against panel of voriconazole-resistant fungal isolates” (Bioorg Med Chem, 2016)", "key": {"[1]": {"system": "Candida albicans", "assay": "Antifungal activity against Candida albicans CA5 assessed as fungal growth at sub-MIC measured over 12 hrs by time-kill dependence-based spectrophotometric analysis relative to DMSO control", "format": "functional"}, "[2]": {"assay": "Hemolytic effect in sheep RBC assessed as release of hemoglobin at MIC after 1 hr", "format": "ADME, cell-based, Ovis aries, Erythrocyte", "settings": "sheep red blood cells, read-out: Activity"}, "[3]": {"assay": "Hemolytic effect in sheep RBC assessed as release of hemoglobin at cytotoxic IC50 after 1 hr", "format": "cell-based, Ovis aries, Erythrocyte", "settings": "sheep red blood cells, read-out: Activity"}, "[4]": {"assay": "Induction of membrane damage in PC/PS/E liposome assessed as calcein release at MIC after 30 mins by fluorescence-based liposome leakage assay", "format": "functional"}, "[5]": {"assay": "Toxicity against zebrafish embryo assessed as dead embryos at 5 ug/ml measured at 96 hrs post fertilization by inverted microscopic analysis", "format": "organism-based, Danio rerio", "settings": "read-out: Activity"}, "[6]": {"assay": "Toxicity against zebrafish embryo assessed as dead embryos at 2.5 ug/ml measured at 96 hrs post fertilization by inverted microscopic analysis", "format": "organism-based, Danio rerio", "settings": "read-out: Activity"}, "[7]": {"species_on_record": "Danio rerio", "assay": "Toxicity against zebrafish embryo assessed as teratogenic embryos at 25 ug/ml measured at 96 hrs post fertilization by inverted microscopic analysis", "format": "organism-based", "settings": "in vivo"}, "[8]": {"species_on_record": "Danio rerio", "assay": "Toxicity against zebrafish embryo assessed as teratogenic embryos at 2.5 ug/ml measured at 96 hrs post fertilization by inverted microscopic analysis", "format": "organism-based", "settings": "in vivo"}, "[9]": {"species_on_record": "Danio rerio", "assay": "Toxicity against zebrafish embryo assessed as effect on tail tip at 25 ug/ml measured at 96 hrs post fertilization by inverted microscopic analysis", "format": "organism-based", "settings": "in vivo"}, "[10]": {"species_on_record": "Danio rerio", "assay": "Toxicity against zebrafish embryo assessed as effect on tail tip at 5 ug/ml measured at 96 hrs post fertilization by inverted microscopic analysis", "format": "organism-based", "settings": "in vivo"}, "[11]": {"species_on_record": "Danio rerio", "assay": "Toxicity against zebrafish embryo assessed as growth retardation at 25 ug/ml measured at 96 hrs post fertilization by inverted microscopic analysis", "format": "organism-based", "settings": "in vivo"}, "[12]": {"species_on_record": "Danio rerio", "assay": "Toxicity against zebrafish embryo assessed as growth retardation at 10 ug/ml measured at 96 hrs post fertilization by inverted microscopic analysis", "format": "organism-based", "settings": "in vivo"}, "[13]": {"species_on_record": "Danio rerio", "assay": "Toxicity against zebrafish embryo assessed as normal embryos at 50 ug/ml measured at 96 hrs post fertilization by inverted microscopic analysis", "format": "organism-based", "settings": "in vivo"}, "[14]": {"species_on_record": "Danio rerio", "assay": "Toxicity against zebrafish embryo assessed as normal embryos at 5 ug/ml measured at 96 hrs post fertilization by inverted microscopic analysis", "format": "organism-based", "settings": "in vivo"}, "[15]": {"species_on_record": "Danio rerio", "assay": "Toxicity against zebrafish embryo assessed as effect on notochord at 25 ug/ml measured at 96 hrs post fertilization by inverted microscopic analysis", "format": "organism-based", "settings": "in vivo"}, "[16]": {"species_on_record": "Danio rerio", "assay": "Toxicity against zebrafish embryo assessed as effect on eyes at 25 ug/ml measured at 96 hrs post fertilization by inverted microscopic analysis", "format": "organism-based", "settings": "in vivo"}, "[17]": {"species_on_record": "Danio rerio", "assay": "Toxicity against zebrafish embryo assessed as effect on eyes at 10 ug/ml measured at 96 hrs post fertilization by inverted microscopic analysis", "format": "organism-based", "settings": "in vivo"}, "[18]": {"species_on_record": "Danio rerio", "assay": "Toxicity against zebrafish embryo assessed as effect on eyes at 5 ug/ml measured at 96 hrs post fertilization by inverted microscopic analysis", "format": "organism-based", "settings": "in vivo"}, "[19]": {"species_on_record": "Danio rerio", "assay": "Toxicity against zebrafish embryo assessed as effect on otoliths at 25 ug/ml measured at 96 hrs post fertilization by inverted microscopic analysis", "format": "organism-based", "settings": "in vivo"}, "[20]": {"species_on_record": "Danio rerio", "assay": "Toxicity against zebrafish embryo assessed as effect on otoliths at 5 ug/ml measured at 96 hrs post fertilization by inverted microscopic analysis", "format": "organism-based", "settings": "in vivo"}, "[21]": {"species_on_record": "Danio rerio", "assay": "Toxicity against zebrafish embryo assessed as effect on otoliths at 2.5 ug/ml measured at 96 hrs post fertilization by inverted microscopic analysis", "format": "organism-based", "settings": "in vivo"}, "[22]": {"system": "Danio rerio", "assay": "Toxicity against zebrafish embryo assessed as pericardial edema at 25 ug/ml measured at 96 hrs post fertilization by inverted microscopic analysis", "format": "organism-based", "settings": "in vivo"}, "[23]": {"system": "Danio rerio", "assay": "Toxicity against zebrafish embryo assessed as pericardial edema at 5 ug/ml measured at 96 hrs post fertilization by inverted microscopic analysis", "format": "organism-based", "settings": "in vivo"}, "[24]": {"system": "Danio rerio", "assay": "Toxicity against zebrafish embryo assessed as yolk edema at 25 ug/ml measured at 96 hrs post fertilization by inverted microscopic analysis", "format": "organism-based", "settings": "in vivo"}, "[25]": {"system": "Danio rerio", "assay": "Toxicity against zebrafish embryo assessed as yolk edema at 2.5 ug/ml measured at 96 hrs post fertilization by inverted microscopic analysis", "format": "organism-based", "settings": "in vivo"}, "[26]": {"species_on_record": "Danio rerio", "assay": "Toxicity against zebrafish embryo assessed as effect on heart beat at 25 ug/ml measured at 96 hrs post fertilization by inverted microscopic analysis", "format": "organism-based", "settings": "in vivo"}, "[27]": {"species_on_record": "Danio rerio", "assay": "Toxicity against zebrafish embryo assessed as effect on blood circulation at 25 ug/ml measured at 96 hrs post fertilization by inverted microscopic analysis", "format": "organism-based", "settings": "in vivo"}, "[28]": {"species_on_record": "Danio rerio", "assay": "Toxicity against zebrafish embryo assessed as effect on blood circulation at 5 ug/ml measured at 96 hrs post fertilization by inverted microscopic analysis", "format": "organism-based", "settings": "in vivo"}, "[29]": {"species_on_record": "Danio rerio", "assay": "Toxicity against zebrafish embryo assessed as unhatched embryos at 25 ug/ml measured at 96 hrs post fertilization by inverted microscopic analysis", "format": "organism-based", "settings": "in vivo"}, "[30]": {"species_on_record": "Danio rerio", "assay": "Toxicity against zebrafish embryo assessed as head malformation at 25 ug/ml measured at 96 hrs post fertilization by inverted microscopic analysis", "format": "organism-based", "settings": "in vivo"}, "[31]": {"species_on_record": "Danio rerio", "assay": "Toxicity against zebrafish embryo assessed as head malformation at 5 ug/ml measured at 96 hrs post fertilization by inverted microscopic analysis", "format": "organism-based", "settings": "in vivo"}, "[32]": {"species_on_record": "Danio rerio", "assay": "Toxicity against zebrafish embryo assessed as head malformation at 2.5 ug/ml measured at 96 hrs post fertilization by inverted microscopic analysis", "format": "organism-based", "settings": "in vivo"}, "[33]": {"species_on_record": "Danio rerio", "assay": "Toxicity against zebrafish embryo assessed as skeletal deformities at 25 ug/ml measured at 96 hrs post fertilization by inverted microscopic analysis", "format": "organism-based", "settings": "in vivo"}, "[34]": {"species_on_record": "Danio rerio", "assay": "Toxicity against zebrafish embryo assessed as skeletal deformities at 10 ug/ml measured at 96 hrs post fertilization by inverted microscopic analysis", "format": "organism-based", "settings": "in vivo"}, "[35]": {"species_on_record": "Danio rerio", "assay": "Toxicity against zebrafish embryo assessed as skeletal deformities at 2.5 ug/ml measured at 96 hrs post fertilization by inverted microscopic analysis", "format": "organism-based", "settings": "in vivo"}}}
{"smiles": "Cl.N=C(N)N/N=C/c1ccc(-c2ccc(Br)cc2)s1", "values": [{"measurement": "Activity", "setting": "[1]", "value": 50, "unit": "%"}, {"measurement": "hemolysis at 1 h", "setting": "[2]", "value": "≤ 10", "unit": "%"}, {"measurement": "hemolysis at 1 h", "setting": "[3]", "value": "≤ 10", "unit": "%"}, {"measurement": "Activity", "setting": "[4]", "value": 7, "unit": "%"}, {"measurement": "mortality at 96 h, 5 ug/ml", "setting": "[5]", "value": 10, "unit": "%"}, {"measurement": "mortality at 96 h, 2.5 ug/ml", "setting": "[6]", "value": 0, "unit": "%"}, {"measurement": "Activity", "setting": "[7]", "value": 26.67, "unit": "%"}, {"measurement": "Activity", "setting": "[8]", "value": 0, "unit": "%"}, {"measurement": "Activity", "setting": "[9]", "value": 100, "unit": "%"}, {"measurement": "Activity", "setting": "[10]", "value": 0, "unit": "%"}, {"measurement": "Activity", "setting": "[11]", "value": 0, "unit": "%"}, {"measurement": "Activity", "setting": "[12]", "value": 0, "unit": "%"}, {"measurement": "Activity", "setting": "[13]", "value": 0, "unit": "%"}, {"measurement": "Activity", "setting": "[14]", "value": 80, "unit": "%"}, {"measurement": "Activity", "setting": "[15]", "value": 0, "unit": "%"}, {"measurement": "Activity", "setting": "[16]", "value": 0, "unit": "%"}, {"measurement": "Activity", "setting": "[17]", "value": 0, "unit": "%"}, {"measurement": "Activity", "setting": "[18]", "value": 0, "unit": "%"}, {"measurement": "Activity", "setting": "[19]", "value": 0, "unit": "%"}, {"measurement": "Activity", "setting": "[20]", "value": 0, "unit": "%"}, {"measurement": "Activity", "setting": "[21]", "value": 0, "unit": "%"}, {"measurement": "Activity", "setting": "[22]", "value": 100, "unit": "%"}, {"measurement": "Activity", "setting": "[23]", "value": 11.11, "unit": "%"}, {"measurement": "Activity", "setting": "[24]", "value": 0, "unit": "%"}, {"measurement": "Activity", "setting": "[25]", "value": 0, "unit": "%"}, {"measurement": "Activity", "setting": "[26]", "value": 0, "unit": "%"}, {"measurement": "Activity", "setting": "[27]", "value": 0, "unit": "%"}, {"measurement": "Activity", "setting": "[28]", "value": 0, "unit": "%"}, {"measurement": "Activity", "setting": "[29]", "value": 0, "unit": "%"}, {"measurement": "Activity", "setting": "[30]", "value": 0, "unit": "%"}, {"measurement": "Activity", "setting": "[31]", "value": 0, "unit": "%"}, {"measurement": "Activity", "setting": "[32]", "value": 0, "unit": "%"}, {"measurement": "Activity", "setting": "[33]", "value": 0, "unit": "%"}, {"measurement": "Activity", "setting": "[34]", "value": 0, "unit": "%"}, {"measurement": "Activity", "setting": "[35]", "value": 0, "unit": "%"}]}
